Tested on: PCA reaction induced by reaginic (IgE-like) antibodies to egg albumin
Test: inhibition of the passive cutaneous anaphylactic (PCA) reaction in rats induced by reaginic antibodies to egg albumin
Type: in vivo, rat
Protocol: Diethylcarbamazin, i.e. 1-diethylcarbamoyl-4-methylpiperazine, was used as a comparison compound. Specifically, tests were run as follows:
Serum containing reaginic (IgE-like) antibody to egg albumin was prepared by injecting rats intramuscularly with 0.1 ml of a solution of the antigen (10 mg/ml) in saline together with 0.5 ml of Bordetella pertussis vaccine (Behring; 2 × 10^10 organisms/ml). 9-14 Days later the animals were bled from the abdominal aorta; the serum was pooled and stored at -20° C until required. The titer of the serum, i.e. the highest dilution inducing passive cutaneous anaphylaxis (PCA) in the rat following a 48-hour latent period, was between 1:8 and 1:32. For use in these experiments the serum was diluted 1:24.
The animals were anesthetized with 2,2-dichloro-1,1-difluoroethyl-methyl ether, sold under the trademark Penthrane, and were sensitized by injecting 0.1 ml of the antiserum into the shaved abdominal flanks. After 48 hours for reaginic PCA, the animals were given an intravenous injection of 1 ml of saline solution containing 0.5% by weight of egg albumin and 0.25% by weight of Evans blue.
After having killed and exsanguinated the animals, the size in square millimeters and the intensity, in arbitary scores, of the resulting blue spot were determined. The product of these two parameters was used to determine the degree of the reaction and the degree of reaction with no active material was taken as the standard against which to measure % inhibition of the anaphylactic reaction.
6 Animals were used per dose level and for control.
In some instances the test material was injected intravenously (i.v.) immediately before the antigen, using a solution in water containing 0.5% HCl and 2% of dimethylformamide, and in other instances intraperitoneally (i.p.) 20 minutes before the antigen, using a suspension in water containing 1% of methylcellulose. The volume of the injection was varied to give the indicated dosage of active material.

[1] = 3 mg/kg i.p. 20 min. before antigen (ovalbumin 5 mg/animal i.v.)
[2] = 3 mg/kg i.v. immediately before antigen (ovalbumin 5 mg/animal i.v.)

SMILES | % Inhibition of PCA, i.p. (60 mg/kg i.p. 20 min. before antigen (ovalbumin 5 mg/animal i.v.)) [%] | % Inhibition of PCA, i.v. (60 mg/kg i.v. immediately before antigen (ovalbumin 5 mg/animal i.v.)) [%] | % Inhibition of PCA, i.p. [1] [%] | % Inhibition of PCA, i.v. [2] [%]
CCN(CC)C(=O)N1CCN(C)CC1 [Diethylcarbamazin, 1-diethylcarbamoyl-4-methylpiperazine, reference compound] | 19 | 58 | – | –
CCCCNc1ncnc2c1ncn2CCCN1CCN(c2ccccc2)CC1 [Ex. 1 (ab), N^6-n-butyl-9-[3-(4-phenyl-piperazino)-propyl]-adenine] | – | – | 69 | –
CCNc1ncnc2c1ncn2CCCN1CCN(c2ccccc2)CC1 [Ex. 1 (d), N^6-ethyl-9-[3-(4-phenyl-piperazino)-propyl]-adenine] | – | – | 41 | 91
CNc1ncnc2c1ncn2CCCN1CCN(c2ccc(F)cc2)CC1 [Ex. 1 (q), N^6-methyl-9-{3-[4-(4-fluorophenyl)-piperazino]-propyl}-adenine] | – | – | 57 | –
CNc1ncnc2c1ncn2CCCN1CCN(c2ccc(C)cc2)CC1 [Ex. 1 (y), N^6-methyl-9-{3-[4-(4-methylphenyl)-piperazino]-propyl}-adenine] | – | – | 33 | 61
CCCNc1ncnc2c1ncn2CCCN1CCN(c2ccccc2)CC1 [Ex. 2, N^6-n-Propyl-9-[3-(4-phenyl-piperazino)-propyl]-adenine] | – | – | 59 | 83

— patent US3996361A, “N^6 -Substituted-9-[3-(4-phenyl-piperazino)-propyl]-adenines” (Boehringer Mannheim G.m.b.H., priority 1974, dated 1976)
